Measurements taken from patent US10131652B2, “Pyrimidinyloxy benzene derivatives as herbicides” (E. I. DU PONT DE NEMOURS AND COMPANY, priority 2014, dated 2018).
Like-named read-outs stand apart in the source and are kept apart here.

Experiments:
Test in all cases: Test D pre-/postemergence plant response
Format in all cases: in vivo
[1] = system: morningglory (Ipomoea coccinea); settings: Ipomoea; for pest or weed control at 16 g/ha: 16 g ai/ha; for pest or weed control at 31 g/ha: 31 g ai/ha; for pest or weed control at 62 g/ha: 62 g ai/ha; for pest or weed control at 125 g/ha: 125 g ai/ha
Text: (§1) Seeds of plant species selected from blackgrass (Alopecurus myosuroides), Italian ryegrass (Lolium multiflorum), winter wheat (Triticum aestivum), galium (catchweed bedstraw, Galium aparine), corn (Zea mays), large (Lg) crabgrass (Digitaria sanguinalis), giant foxtail (Setaria faberii), johnsongrass (Sorghum halepense), lambsquarters (Chenopodium album), morningglory (Ipomoea coccinea), yellow nutsedge (Cyperus esculentus), pigweed (Amaranthus retroflexus), ragweed (common ragweed, Ambrosia elatior), soybean (Glycine max), bamyardgrass (Echinochloa crus-galli), oilseed rape (Brassica napus), waterhemp (common waterhemp, Amaranthus rudis), and velvetleaf (Abutilon theophrasti) were planted into a blend of loam soil and sand and treated preemergence with test chemicals formulated in a non-phytotoxic solvent mixture which included a surfactant. At the same time, plants selected from these crop and weed species and also kochia (Kochia scoparia), wild oat (Avena fatua), and chickweed (common chickweed, Stellaria media) were planted in pots containing Redi-Earth® planting medium (Scotts Company, 14111 Scottslawn Road, Marysville, Ohio 43041) comprising spaghnum peat moss, vermiculite, wetting agent and starter nutrients and treated with postemergence applications of test chemicals formulated in the same manner. Plants ranged in height from 2 to 18 cm (1- to 4-leaf stage) for postemergence treatments. Treated plants and controls were maintained in a greenhouse for 13 to 15 days, after which time all species were compared to controls and visually evaluated. Plant response ratings, summarized in Table D, are based on a scale of 0 to 100 where 0 is no effect and 100 is complete control. A dash (-) response means no test result.

[2] = system: winter wheat (Triticum aestivum); settings: Triticum aestivum; for plant injury at 16 g/ha: 16 g ai/ha; for plant injury at 31 g/ha: 31 g ai/ha; for plant injury at 62 g/ha: 62 g ai/ha; for plant injury at 125 g/ha: 125 g ai/ha
Text: as §1

[3] = system: lambsquarters (Chenopodium album); settings: Chenopodium album; for pest or weed control at 16 g/ha: 16 g ai/ha; for pest or weed control at 31 g/ha: 31 g ai/ha; for pest or weed control at 62 g/ha: 62 g ai/ha; for pest or weed control at 125 g/ha: 125 g ai/ha
Text: as §1

corn (Zea mays) = settings: Zea mays; for Corn plant response rating (crop injury, 0 = no effect, 100 = complete kill) at 62 g/ha: 62 g ai/ha
Text: as §1

[4] = system: waterhemp (common waterhemp, Amaranthus rudis); settings: Amaranthus tuberculatus; for pest or weed control at 16 g/ha: 16 g ai/ha; for pest or weed control at 31 g/ha: 31 g ai/ha; for pest or weed control at 62 g/ha: 62 g ai/ha; for pest or weed control at 125 g/ha: 125 g ai/ha
Text: as §1

[5] = system: ragweed (common ragweed, Ambrosia elatior); settings: Ambrosia artemisiifolia; for pest or weed control at 16 g/ha: 16 g ai/ha; for pest or weed control at 31 g/ha: 31 g ai/ha; for pest or weed control at 62 g/ha: 62 g ai/ha; for pest or weed control at 125 g/ha: 125 g ai/ha
Text: as §1

[6] = post-emergence, Postemergence, scale 0 to 100 (0 no effect, 100 complete control), read-out: Morningglory plant response rating
[7] = post-emergence, Postemergence, scale 0 to 100, 0 no effect, 100 complete control, read-out: Plant response rating, Morningglory
[8] = pre-emergence, Preemergence, scale 0 to 100 (0 no effect, 100 complete control), read-out: Plant response rating, Morningglory
[9] = post-emergence, Postemergence, scale 0 to 100 (0 no effect, 100 complete control), read-out: Wheat plant response rating
[10] = post-emergence, Postemergence, scale 0 to 100, 0 no effect, 100 complete control, read-out: Plant response rating, Wheat
[11] = pre-emergence, Preemergence, scale 0 to 100 (0 no effect, 100 complete control), read-out: Plant response rating, Wheat
[12] = post-emergence, Postemergence, scale 0 to 100 (0 no effect, 100 complete control), read-out: Lambsquarters plant response rating
[13] = post-emergence, Postemergence, scale 0 to 100, 0 no effect, 100 complete control, read-out: Plant response rating, Lambsquarters
[14] = pre-emergence, Preemergence, scale 0 to 100 (0 no effect, 100 complete control), read-out: Plant response rating, Lambsquarters
[15] = post-emergence, Postemergence, scale 0 to 100 (0 no effect, 100 complete control), read-out: Waterhemp plant response rating
[16] = post-emergence, Postemergence, scale 0 to 100, 0 no effect, 100 complete control, read-out: Plant response rating, Waterhemp
[17] = pre-emergence, Preemergence, scale 0 to 100 (0 no effect, 100 complete control), read-out: Plant response rating, Waterhemp
[18] = post-emergence, Postemergence, scale 0 to 100 (0 no effect, 100 complete control), read-out: Ragweed plant response rating
[19] = post-emergence, Postemergence, scale 0 to 100, 0 no effect, 100 complete control, read-out: Plant response rating, Ragweed
[20] = pre-emergence, Preemergence, scale 0 to 100 (0 no effect, 100 complete control), read-out: Plant response rating, Ragweed

**Q.** How did the pest or weed control at 16 g/ha [1, 6] turn out when `Fc1cccc(Oc2ncc(Cl)cn2)c1-c1cc(C(F)F)on1` [Compound 55, 5-chloro-2-[2-[5-(difluoromethyl)-3-isoxazolyl]-3-fluorophenoxy]pyrimidine] was run?
**A.** 70%

**Q.** And the pest or weed control at 31 g/ha [1, 6]?
**A.** 70%

**Q.** And the pest or weed control at 62 g/ha [1, 7]?
**A.** 80%

**Q.** What about the pest or weed control at 125 g/ha [1, 7] of the same compound?
**A.** 85%

**Q.** What about the pest or weed control at 125 g/ha ([1]; pre-emergence, Preemergence, read-out: Plant response rating (scale 0 to 100), Morningglory) of the same compound?
**A.** 100%

**Q.** And the pest or weed control at 16 g/ha [1, 8]?
**A.** 10%

**Q.** And the pest or weed control at 31 g/ha [1, 8]?
**A.** 50%

**Q.** What about the pest or weed control at 62 g/ha [1, 8] of the same compound?
**A.** 100%

**Q.** What about the plant injury at 16 g/ha [2, 9] of the same compound?
**A.** 5%

**Q.** What about the plant injury at 31 g/ha [2, 9] of the same compound?
**A.** 25%

**Q.** What about the plant injury at 62 g/ha [2, 10] of the same compound?
**A.** 30%

**Q.** What about the plant injury at 125 g/ha [2, 10] of the same compound?
**A.** 35%

**Q.** And the plant injury at 125 g/ha ([2]; pre-emergence, Preemergence, read-out: Plant response rating (scale 0 to 100), Wheat)?
**A.** 60%

**Q.** What about the plant injury at 16 g/ha [2, 11] of the same compound?
**A.** 0%

**Q.** What about the plant injury at 31 g/ha [2, 11] of the same compound?
**A.** 0%

**Q.** What about the plant injury at 62 g/ha [2, 11] of the same compound?
**A.** 25%

**Q.** And the pest or weed control at 16 g/ha [3, 12]?
**A.** 75%

**Q.** What about the pest or weed control at 31 g/ha [3, 12] of the same compound?
**A.** 85%

**Q.** What about the pest or weed control at 62 g/ha [3, 13] of the same compound?
**A.** 98%

**Q.** What about the pest or weed control at 125 g/ha [3, 13] of the same compound?
**A.** 98%

**Q.** And the pest or weed control at 125 g/ha ([3]; pre-emergence, Preemergence, read-out: Plant response rating (scale 0 to 100), Lambsquarters)?
**A.** 98%

**Q.** What about the pest or weed control at 16 g/ha [3, 14] of the same compound?
**A.** 100%

**Q.** What about the pest or weed control at 31 g/ha [3, 14] of the same compound?
**A.** 100%

**Q.** And the pest or weed control at 62 g/ha [3, 14]?
**A.** 100%

**Q.** What about the plant injury at 16 g/ha (corn (Zea mays); post-emergence, Postemergence, 16 g ai/ha, scale 0 to 100 (0 no effect, 100 complete control), read-out: Corn plant response rating) of the same compound?
**A.** 10%

**Q.** What about the plant injury at 31 g/ha (corn (Zea mays); post-emergence, Postemergence, 31 g ai/ha, scale 0 to 100 (0 no effect, 100 complete control), read-out: Corn plant response rating) of the same compound?
**A.** 10%

**Q.** What about the Corn plant response rating (crop injury, 0 = no effect, 100 = complete kill) at 62 g/ha (corn (Zea mays); post-emergence, Postemergence, scale 0 to 100, 0 no effect, 100 complete control) of the same compound?
**A.** 10%

**Q.** And the Corn plant response rating (crop injury, 0 = no effect, 100 = complete kill) at 125 g/ha (corn (Zea mays); post-emergence, Postemergence, 125 g ai/ha, scale 0 to 100, 0 no effect, 100 complete control)?
**A.** 20%

**Q.** And the plant injury at 125 g/ha (corn (Zea mays); pre-emergence, Preemergence, 125 g ai/ha, read-out: Plant response rating (scale 0 to 100), Corn)?
**A.** 80%

**Q.** And the Corn plant response rating (crop injury, 0 = no effect, 100 = complete kill) at 16 g/ha (corn (Zea mays); pre-emergence, Preemergence, 16 g ai/ha, scale 0 to 100 (0 no effect, 100 complete control))?
**A.** 5%

**Q.** And the Corn plant response rating (crop injury, 0 = no effect, 100 = complete kill) at 31 g/ha (corn (Zea mays); pre-emergence, Preemergence, 31 g ai/ha, scale 0 to 100 (0 no effect, 100 complete control))?
**A.** 20%

**Q.** What about the Corn plant response rating (crop injury, 0 = no effect, 100 = complete kill) at 62 g/ha (corn (Zea mays); pre-emergence, Preemergence, scale 0 to 100 (0 no effect, 100 complete control)) of the same compound?
**A.** 35%

**Q.** And the pest or weed control at 16 g/ha [4, 15]?
**A.** 85%

**Q.** And the pest or weed control at 31 g/ha [4, 15]?
**A.** 90%

**Q.** And the pest or weed control at 62 g/ha [4, 16]?
**A.** 98%

**Q.** What about the pest or weed control at 125 g/ha [4, 16] of the same compound?
**A.** 100%

**Q.** What about the pest or weed control at 125 g/ha ([4]; pre-emergence, Preemergence, read-out: Plant response rating (scale 0 to 100), Waterhemp) of the same compound?
**A.** 100%

**Q.** And the pest or weed control at 16 g/ha [4, 17]?
**A.** 100%

**Q.** And the pest or weed control at 31 g/ha [4, 17]?
**A.** 100%

**Q.** What about the pest or weed control at 62 g/ha [4, 17] of the same compound?
**A.** 100%

**Q.** What about the pest or weed control at 16 g/ha [5, 18] of the same compound?
**A.** 25%

**Q.** And the pest or weed control at 31 g/ha [5, 18]?
**A.** 40%

**Q.** What about the pest or weed control at 62 g/ha [5, 19] of the same compound?
**A.** 65%

**Q.** And the pest or weed control at 125 g/ha [5, 19]?
**A.** 90%

**Q.** And the pest or weed control at 125 g/ha ([5]; pre-emergence, Preemergence, read-out: Plant response rating (scale 0 to 100), Ragweed)?
**A.** 95%

**Q.** What about the pest or weed control at 16 g/ha [5, 20] of the same compound?
**A.** 70%

**Q.** What about the pest or weed control at 31 g/ha [5, 20] of the same compound?
**A.** 75%

**Q.** And the pest or weed control at 62 g/ha [5, 20]?
**A.** 90%
